Measurements reported in patent US20230390240A1, “METHODS OF TREATMENT” (Board of Supervisors of Louisiana State University and …, priority 2020, published 2023).
Peptide text beside a SMILES is read from it. * marks the point of attachment. Cbz = O=C(OCc1ccccc1)*

What was measured:
[1] = molecular target: T1, mutated RPE65 (R91W KI mice) (Mus musculus, UniProt Q91ZQ5, R91W); details: cited from earlier work
T1 construct: host or cells: R91W knock-in (KI) mice
T1 sequence (Q91ZQ5 1-533 R91W): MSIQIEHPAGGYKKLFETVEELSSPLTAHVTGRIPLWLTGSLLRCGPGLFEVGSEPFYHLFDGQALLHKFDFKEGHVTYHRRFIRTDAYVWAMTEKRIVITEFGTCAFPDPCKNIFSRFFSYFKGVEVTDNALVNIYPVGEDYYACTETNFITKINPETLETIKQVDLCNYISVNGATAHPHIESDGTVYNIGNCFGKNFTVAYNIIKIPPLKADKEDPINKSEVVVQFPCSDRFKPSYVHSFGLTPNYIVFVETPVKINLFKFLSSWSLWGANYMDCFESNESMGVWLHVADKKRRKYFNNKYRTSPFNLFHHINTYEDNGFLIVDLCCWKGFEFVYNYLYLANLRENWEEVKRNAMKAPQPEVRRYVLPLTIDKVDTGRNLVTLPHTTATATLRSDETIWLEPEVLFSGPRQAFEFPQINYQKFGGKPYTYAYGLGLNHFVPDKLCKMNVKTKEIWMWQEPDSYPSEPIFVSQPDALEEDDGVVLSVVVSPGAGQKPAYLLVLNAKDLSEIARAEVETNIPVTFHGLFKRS

[2] = system: fatty acid transport protein 4 (FATP4); assay: Immunoblot analysis of FATP4 in the RPE of mice treated daily with drug; type: in vivo, mouse; details: one-month-old mice treated daily, oral; Ezetimibe 10 mg/kg, Simvastatin 30 mg/kg; vs DMSO
From the text: Actin was detected as the loading control.

[3] = system: FATP4 in intestinal cells; details: animal studies; cited from earlier work
[4] = system: S-opsin in retinal explants; assay: Protease inhibitor assay: immunoblot of S-opsin in retinal explants; type: cell-based, mouse; details: 5 hours
From the text: OS, outer segments; ONL, Outer nuclear layer; OPL, outer plexiform layer. Scale bar, 20-μm. (B) Percentage of Sopsin mislocalization estimated by dividing S-opsin immunofluorescence in the OPL by the sum of immunofluorescence in the OPL and OS. Note the decrease in S-opsin mislocalization in KI;Fatp4^−/− mice. (C,D) Immunoblot analysis of S-opsin in retinal explants treated with the indicated concentrations of MG132 (C) or pepstatin A (D). DMSO was used in the MG132 and pepstatin A null controls. Histograms show relative immunoblot intensities of S-opsin in MG132-treated and pepstatin A-treated retinas versus DMSO-treated controls. (E) Representative immunoblot analysis of M-opsin in Triton X-100 (Tx)-soluble and -insoluble retinal fractions separated by ultracentrifugation (right panel). […] (F) Percentages of Tx-soluble and -insoluble Mopsin in WT, KI, and KI;Fatp4^−/− mice are estimated from the immunoblot intensities in (E).
Immunoblot analysis Protein samples were separated by SDS-PAGE and transferred to an Immobilon-P membrane. The membrane was incubated in blocking buffer, primary antibody, and horseradish peroxidase-conjugated anti-rabbit or mouse IgG secondary antibody. Antibodies against RPE65 (63), LRAT (64, 65), FATP4 (66), β-actin, rhodopsin, M-opsin (MilliporeSigma Co.), S-opsin (Santa Cruz Biotechnology) were used as the primary antibodies. Immunoblots were visualized with the ECL Prime Western blotting detection reagent and ImageQuant LAS 4000 (48). Signal intensity of each band was quantified using ImageQuant TL software.
Protease inhibitor assay Eyes were enucleated from euthanized 4-week-old mice, and the corneas and lenses were removed. The neural retinas dissected from the eyecups were maintained in the DMEM-F12 medium (Thermo Fisher Scientific Inc.) supplemented with 10% fetal bovine serum and antibiotics in a 5% CO2 incubator at 37° C. After incubating for 5 hours in the presence of a series of increasing concentrations of MG132 (0˜25 μM) or pepstatin A (0˜30 μM), the retinas were subjected to immunoblot analysis.

RPE65 isomerase = molecular target: T2, RPE65 isomerase (Homo sapiens, UniProt Q16518); details: in vitro; cited from earlier work
T2 sequence (Q16518 1-533): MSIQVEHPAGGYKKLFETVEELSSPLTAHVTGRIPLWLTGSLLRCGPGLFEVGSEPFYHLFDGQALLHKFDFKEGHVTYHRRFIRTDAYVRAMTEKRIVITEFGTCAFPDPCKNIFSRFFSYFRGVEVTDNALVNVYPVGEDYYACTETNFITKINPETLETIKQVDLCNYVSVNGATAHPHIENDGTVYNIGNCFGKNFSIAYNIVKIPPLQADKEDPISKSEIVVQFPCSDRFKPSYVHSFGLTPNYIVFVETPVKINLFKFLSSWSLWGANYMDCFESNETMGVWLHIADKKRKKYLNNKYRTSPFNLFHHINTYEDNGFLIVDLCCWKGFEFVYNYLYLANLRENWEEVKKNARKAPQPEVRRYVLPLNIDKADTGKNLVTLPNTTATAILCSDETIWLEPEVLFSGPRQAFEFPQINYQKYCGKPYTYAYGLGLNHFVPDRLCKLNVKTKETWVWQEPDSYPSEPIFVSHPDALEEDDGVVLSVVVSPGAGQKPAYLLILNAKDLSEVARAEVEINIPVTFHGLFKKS

## O=C(O)CCCc1ccccc1 [4-phenylbutyrate]
[1]; KI mice
  elevation of 11cRAL: 96%
[1]; systemic administration, mouse model of LCA
  function of mutated RPE65; preservation of photoreceptors and vision: could partially rescue the function of mutated RPE65

## O=C1[C@H](CC[C@H](O)c2ccc(F)cc2)[C@@H](c2ccc(O)cc2)N1c1ccc(F)cc1 [Ezetimibe]
[2]
  expression levels of FATP4 in the retinal pigment epithelium (RPE): reduced expression levels
[3]
  expression of FATP4 in intestinal cells: markedly reduced expression of FATP4

## CC(C)C[C@@H](C=O)NC(=O)[C@H](CC(C)C)NC(=O)[C@H](CC(C)C)NC(=O)OCc1ccccc1 [MG132] (Cbz-Leu-Leu-Leu-aldehyde)
[4]; KI retinas, MG132 (0~25 μM)
  relative amount of S-opsin, increase vs DMSO-treated retinas: 3 fold
[4]; KI;Fatp4−/− retinas, MG132 (0~25 μM)
  relative amount of S-opsin, increase vs DMSO-treated retinas: 1.6 fold

## CCCCCCCCCCCCCCCCCCCCCCCC(=O)SCCNC(=O)CCNC(=O)[C@H](O)C(C)(C)COP(=O)(O)OP(=O)(O)OC[C@H]1O[C@@H](n2cnc3c(N)ncnc32)[C@H](O)[C@@H]1OP(=O)(O)O [lignoceroyl (C24:0)-CoA]
RPE65 isomerase
  synthesis of 11-cis-retinol (11cROL): inhibited the synthesis

## CCCCCCCCCCCCCCCC(=O)SCCNC(=O)CCNC(=O)[C@H](O)C(C)(C)COP(=O)(O)OP(=O)(O)OC[C@H]1O[C@@H](n2cnc3c(N)ncnc32)[C@H](O)[C@@H]1OP(=O)(O)O [palmitoyl (C16:0)-CoA]
RPE65 isomerase
  synthesis of 11-cis-retinol (11cROL): promoted the synthesis

## pepstatin A
[4]; KI retinas, pepstatin A (0~30 μM)
  relative amount of S-opsin, increase vs DMSO-treated retinas: ~55%
[4]; KI;Fatp4−/− retinas, pepstatin A (0~30 μM)
  relative amount of S-opsin, increase vs DMSO-treated retinas: ~43%
